# Laboratory results: patent publication US20230338315A1, “METHOD OF PRODUCING PHARMACEUTICAL COCRYSTALS FOR ADDITIVE MANUFACTURING” (BOARD OF REGENTS, THE UNIVERSITY OF TEXAS SYSTEM, priority 2020, published 2023)
# How the values were obtained:
# [1] = Preformulation studies: solubility in solvents; type: physicochemical; settings: for Soluble in solvent ET-Acetate: solvent ethyl acetate
# Description: Both the drug and conformer were soluble in ethyl acetate. Ethyl acetate was used to prepare pure MA-SAC cocrystals using slow solvent evaporation. Briefly, 1:1 molar ratio of MA and SAC were mixed using a mortar and pestle. This blend was dissolved in ethyl acetate at 50° C. in a glass beaker using a magnetic stirrer-hotplate. Once the physical mixture was dissolved, the solvent was placed on an ice bath to induce nucleation of the cocrystals, the beaker was then placed in fume hood until all the solvent was evaporated. After the solvent was evaporated, the crystals were placed in an oven at 60° C. to remove any residual solvent. The resultant crystals were tested for modulated differential scanning calorimetry. A clear phase separation was observed where crystals with two different habits were developed. Samples for each phase were collected and exposed to thermal analysis.
# [2] = HPLC with mass spectrophotometer of hot melt extruded mefenamic acid (degradant identification); type: physicochemical
# [3] = Preformulation studies with Kollidon VA64 (decomposition of mefenamic acid); type: physicochemical; settings: presence of Kollidon VA64
# [4] = cited from earlier work
# [5] = cited from earlier work; remark: listed apart in the source
SMILES,Soluble in solvent ACN [1],Soluble in solvent Et—OH [1],Soluble in solvent Me—OH [1],Soluble in solvent ET-Acetate [1],"degradation or decarboxylation in the extruded samples ([2]; continuous, solvent-free, polymer assisted hot melt extrusion)","degradation on hot melt extrusion processing (mass spectroscopy) ([2]; processed with saccharin by HME at 200° C., 180° C., 170° C. and 160° C., no polymer carrier)",effect of Kollidon VA64 on decomposition of mefenamic acid [3],Log P [4],pKa [5]
Cc1cccc(Nc2ccccc2C(=O)O)c1C [Mefenamic acid],No,Yes,No,Yes,no degradation or decarboxylation,decarboxylation,can delay the decomposition,–,–
O=C1NS(=O)(=O)c2ccccc21 [Saccharin],Yes,No,Yes,Yes,–,–,–,0.91,1.31
